Literature values in US12016331B2, “Microemulsions and uses thereof as delivery systems” (ARCHER DANIELS MIDLAND COMPANY, priority 2012, dated 2024).

Row | SMILES | LD 50 value, dermal toxicity
1 | CCC(=O)O [propionic acid] | 500 mg/kg
2 | CC(O)C(=O)O (centres unmarked) [lactic acid] | greater than 3000 mg/Kg
